Laboratory results reported in patent US20240122932A1, “Methods of Treating B-Cell Malignancy Using Bcl-2 Inhibitor” (BeiGene Switzerland GmbH, priority 2021, published 2024).

Tested on: JeKo-1 human mantle cell lymphoma (MCL) subcutaneous xenograft
Assay: JeKo-1 human MCL subcutaneous xenograft model, Bcl-2 inhibitor with BTK inhibitor
Assay type: in vivo, NCG mice
Conditions: 20 mpk p.o. BID
Description: JeKo-1 cells were maintained as suspension cell cultures at 37° C. in a 5% CO2 atmosphere. Five to six-week-old female NCG mice were purchased from Gempharmatech of Information Technology Center. All animals were maintained under specific pathogen free (SPF) “full barrier” condition with free access to food and water. […] Mice were fed with complete granulated feed with Co60 radiosterilization (Beijing Ke Ao Xie Li Feed Co., Ltd.). All experiments were carried out in accordance with BeiGene's IACUC.
Re-suspended cells were placed on ice prior to inoculation. […] Each animal was injected subcutaneously with 1×10^7 cells in 200 μL of cell suspension in the right front flank via a 26-gauge needle. After implantation, primary tumor volume was measured in two dimensions using a caliper.
Transplanted animals were randomized into 8 groups with 10 mice per group on day 0 according to transplantation sequence and body weight. […] Treatments were administered by oral gavage (p.o.) in a volume of 10 mL/kg body weight. Body weight was assessed immediately before dosing and volume dosed was adjusted accordingly.
Individual body weight was recorded twice weekly, with mice being monitored daily for clinical signs of toxicity for the duration of the study. Mice were euthanized using carbon dioxide when their tumor volume reached 2,000 mm^3, the tumor was ulcerated, or body weight loss exceeded 20%.
Tumor volume (TV) was calculated using the formula: TV=0.5×(a×b^2) where a and b are the long and short diameters of the tumor, respectively. […] (treated t=treated tumor volume at time t, vehicle t=vehicle tumor volume at time t)

Q: Which “Mean TV (D 21) (mm^3 ± SEM)” value does the source give for `C=CC(=O)N1CCC([C@@H]2CCNc3c(C(N)=O)c(-c4ccc(Oc5ccccc5)cc4)nn32)CC1` [Compound B, (S)-7-(1-acryloylpiperidin-4-yl)-2-(4-phenoxyphenyl)-4,5,6,7-tetra-hydropyrazolo[1,5-a]pyrimidine-3-carboxamide, reference compound] here?
A: Its value is 799.8 ± 73.2 mm^3.

Q: And the “TGI (%)” value (day 21, 20 mg/kg)?
A: Its value is 56%.
